Assay results: PMC2442655, “Structure-Activity Relationship and Substrate-Dependent Phenomena in Effects of Ginsenosides on Activities of Drug-Metabolizing P450 Enzymes” (PLoS ONE, 2008)
Structures can show the parent of a compound that is named as a salt. Where two headings read alike, the source gives them in different places.

Columns and labels:
CYP3A4 [1] = molecular target: T1, CYP3A4 (Homo sapiens, UniProt P08684); assay: Vivid CYP3A4 green fluorescent assay; conditions: for inhibition at 30 min, 50 µM: human
Method: (§1) The inhibition of the catalytic activities of cDNA-expressed human P450 enzymes by ginsenosides was determined using Vivid® P450 screening kits (CYP1A2 blue, CYP2C9 red, CYP2C19 blue, CYP2D6 blue, CYP3A4 green and red) according to the manufacturer's instructions (Invitrogen Corporation; Carlsbad, CA, USA).
(§2) In brief, the assays were carried out in Costar® black-wall 96-well plates with ultra thin clear bottoms (Corning Inc, Corning, NY, USA) in a kinetic assay mode. Stock solutions (10 mM) of ginsenosides in methanol were prepared and diluted to various concentrations (2.5× 100, 50, 10, 5, 1 µM). For each well, 40 µL of solution of test compounds or vehicle was incubated with 50 µL pre-mixture (mixture of BACULOSOMES® reagent, regeneration system and reaction buffer) at 37°C for 20 min. The reaction was initiated by adding 10 µL of a mixture of substrate and NADP^+ per well with a respective concentration of Vivid® substrate (Table 1). The plate was read immediately for fluorescence changes every 0.5 min at 37°C for 30 min using a FlexStation II384 fluorometric plate reader (Molecular Devices, Sunnyvale, CA, USA) with respective excitation and emission wavelengths for each P450 enzyme (Table 1). The final methanol volume in the reaction was less than or equal to 1%.

CYP2C9 = molecular target: T2, CYP2C9 (Homo sapiens, UniProt P11712); assay: Vivid CYP2C9 red fluorescent assay; type: in vitro ADME; conditions: for inhibition at 30 min, 50 µM: human
T2 construct: purchased Invitrogen Corporation
Method: In brief, the assays were carried out in Costar® black-wall 96-well plates with ultra thin clear bottoms (Corning Inc, Corning, NY, USA) in a kinetic assay mode. […] For each well, 40 µL of solution of test compounds or vehicle was incubated with 50 µL pre-mixture (mixture of BACULOSOMES® reagent, regeneration system and reaction buffer) at 37°C for 20 min. […] The final methanol volume in the reaction was less than or equal to 1%.

CYP2D6 = CYP2D6 (Homo sapiens, UniProt P10635); assay: Vivid CYP2D6 blue fluorescent assay; conditions: for inhibition at 30 min, 50 µM: human
Method: as §1, §2

CYP2C19 = CYP2C19 (Homo sapiens, UniProt P33261); assay: Vivid CYP2C19 blue fluorescent assay; conditions: for inhibition at 30 min, 50 µM: human
Method: as §1, §2

CYP1A2 = molecular target: T3, CYP1A2 (Homo sapiens, UniProt P05177); assay: Vivid CYP1A2 blue fluorescent assay; conditions: for IC50: IC50 CYP1A2 blue, cDNA-expressed enzyme, Vivid blue substrate 3 µM; for inhibition at 30 min, 50 µM: human
T3 sequence (P05177 1-516): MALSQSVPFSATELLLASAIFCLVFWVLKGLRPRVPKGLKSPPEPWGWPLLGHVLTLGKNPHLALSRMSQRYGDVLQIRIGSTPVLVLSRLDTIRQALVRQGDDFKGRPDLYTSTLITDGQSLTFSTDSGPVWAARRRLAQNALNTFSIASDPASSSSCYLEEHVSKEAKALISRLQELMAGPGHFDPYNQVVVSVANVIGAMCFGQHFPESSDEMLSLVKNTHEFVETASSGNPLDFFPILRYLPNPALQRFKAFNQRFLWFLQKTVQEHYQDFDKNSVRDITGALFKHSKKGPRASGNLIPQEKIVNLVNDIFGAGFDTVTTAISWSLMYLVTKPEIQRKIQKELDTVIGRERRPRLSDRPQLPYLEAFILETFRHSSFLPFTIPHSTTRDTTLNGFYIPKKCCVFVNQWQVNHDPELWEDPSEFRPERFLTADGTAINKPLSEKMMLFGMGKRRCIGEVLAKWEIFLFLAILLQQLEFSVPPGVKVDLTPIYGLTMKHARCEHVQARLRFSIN
Method: as §1, §2

CYP3A4 [2] = molecular target: T1, CYP3A4; assay: Vivid CYP3A4 red fluorescent assay; conditions: for inhibition at 30 min, 50 µM: human, recombinant (cDNA-expressed) CYP3A4 BACULOSOMES, probe Vivid red substrate 3 µM
Method: as §1, §2

[3] = recombinant (cDNA-expressed) CYP3A4 BACULOSOMES, probe Vivid green substrate 2 µM
[4] = cDNA-expressed enzyme, Vivid red substrate 2 µM, maximum concentration 50 µM, read-out: IC50 CYP2C9 red
[5] = recombinant (cDNA-expressed) CYP2C9 BACULOSOMES, probe Vivid red substrate 2 µM
[6] = recombinant (cDNA-expressed) CYP2D6 BACULOSOMES, probe Vivid blue substrate 10 µM
[7] = recombinant (cDNA-expressed) CYP2C19 BACULOSOMES, probe Vivid blue substrate 10 µM
[8] = recombinant (cDNA-expressed) CYP1A2 BACULOSOMES, probe Vivid blue substrate 3 µM

CYP2D6, sequence (P10635 whole entry): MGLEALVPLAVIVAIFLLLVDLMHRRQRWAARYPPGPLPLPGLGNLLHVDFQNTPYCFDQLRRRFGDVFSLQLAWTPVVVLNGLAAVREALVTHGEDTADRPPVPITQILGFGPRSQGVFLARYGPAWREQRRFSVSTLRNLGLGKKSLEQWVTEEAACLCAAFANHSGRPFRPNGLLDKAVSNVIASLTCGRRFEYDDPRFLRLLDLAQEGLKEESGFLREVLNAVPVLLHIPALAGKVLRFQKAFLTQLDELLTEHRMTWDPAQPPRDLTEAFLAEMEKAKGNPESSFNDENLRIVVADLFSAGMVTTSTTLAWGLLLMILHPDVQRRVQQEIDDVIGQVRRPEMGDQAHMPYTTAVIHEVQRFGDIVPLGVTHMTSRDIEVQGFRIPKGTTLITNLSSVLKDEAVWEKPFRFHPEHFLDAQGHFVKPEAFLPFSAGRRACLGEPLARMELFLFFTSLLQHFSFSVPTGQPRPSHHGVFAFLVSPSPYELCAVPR
T1 sequence (P08684 whole entry): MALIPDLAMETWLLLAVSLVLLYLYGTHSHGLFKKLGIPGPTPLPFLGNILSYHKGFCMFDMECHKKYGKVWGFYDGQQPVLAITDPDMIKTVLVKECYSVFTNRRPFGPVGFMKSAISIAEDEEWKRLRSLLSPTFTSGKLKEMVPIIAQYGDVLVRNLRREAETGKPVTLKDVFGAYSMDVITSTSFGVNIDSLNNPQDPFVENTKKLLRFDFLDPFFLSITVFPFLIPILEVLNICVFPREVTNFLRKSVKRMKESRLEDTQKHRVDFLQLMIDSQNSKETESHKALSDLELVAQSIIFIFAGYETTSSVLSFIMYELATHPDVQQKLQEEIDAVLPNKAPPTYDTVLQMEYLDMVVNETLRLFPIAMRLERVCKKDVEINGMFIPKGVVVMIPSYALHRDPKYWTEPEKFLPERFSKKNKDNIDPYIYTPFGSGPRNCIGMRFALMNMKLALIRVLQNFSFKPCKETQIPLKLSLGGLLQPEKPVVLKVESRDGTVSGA
T2 sequence (P11712 whole entry): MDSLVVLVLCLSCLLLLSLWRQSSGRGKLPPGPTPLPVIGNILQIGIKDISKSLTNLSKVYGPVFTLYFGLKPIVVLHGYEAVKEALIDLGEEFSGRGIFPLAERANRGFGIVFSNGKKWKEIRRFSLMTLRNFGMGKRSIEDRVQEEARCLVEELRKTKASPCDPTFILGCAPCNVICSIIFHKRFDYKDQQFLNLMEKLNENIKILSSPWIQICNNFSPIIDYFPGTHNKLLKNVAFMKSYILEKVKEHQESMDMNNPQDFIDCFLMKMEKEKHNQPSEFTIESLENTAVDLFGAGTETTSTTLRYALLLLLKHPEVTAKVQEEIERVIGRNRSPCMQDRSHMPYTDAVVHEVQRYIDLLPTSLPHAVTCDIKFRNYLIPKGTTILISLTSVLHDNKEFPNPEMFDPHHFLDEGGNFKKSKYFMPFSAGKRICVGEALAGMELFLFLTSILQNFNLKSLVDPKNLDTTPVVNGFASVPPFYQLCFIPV
CYP2C19, sequence (P33261 whole entry): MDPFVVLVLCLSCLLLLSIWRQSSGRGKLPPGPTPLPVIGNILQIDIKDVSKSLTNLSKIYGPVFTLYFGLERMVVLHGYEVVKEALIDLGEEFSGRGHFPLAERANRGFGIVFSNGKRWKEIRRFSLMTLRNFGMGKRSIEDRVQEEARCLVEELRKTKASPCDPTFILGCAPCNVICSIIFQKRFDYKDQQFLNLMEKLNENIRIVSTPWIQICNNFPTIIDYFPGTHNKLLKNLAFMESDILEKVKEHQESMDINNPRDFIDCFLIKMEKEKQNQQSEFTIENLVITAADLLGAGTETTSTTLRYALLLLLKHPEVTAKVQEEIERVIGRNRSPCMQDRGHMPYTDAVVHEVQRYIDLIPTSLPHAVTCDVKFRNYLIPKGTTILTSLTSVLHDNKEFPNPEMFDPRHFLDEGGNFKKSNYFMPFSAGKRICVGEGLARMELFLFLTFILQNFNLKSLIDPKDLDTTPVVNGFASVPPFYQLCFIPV

IC50 (CYP3A4 [1]) [µM]	inhibition at 30 min, 50 µM (CYP3A4 [1]; [3]) [%]	IC50 (CYP2C9; [4]) [µM]	inhibition at 30 min, 50 µM (CYP2C9; [5]) [%]	IC50 (CYP2D6) [µM]	inhibition at 30 min, 50 µM (CYP2D6; [6]) [%]	IC50 (CYP2C19) [µM]	inhibition at 30 min, 50 µM (CYP2C19; [7]) [%]	IC50 (CYP1A2) [µM]	IC50 (CYP3A4 [2]) [µM]	inhibition at 30 min, 50 µM (CYP3A4 [2]) [%]	inhibition at 30 min, 50 µM (CYP1A2; [8]) [%]	SMILES	inhibition at 30 min, 50 µM (CYP3A4 [1]) [%]	IC50 (CYP2C9) [µM]	inhibition at 30 min, 50 µM (CYP2C9) [%]	inhibition at 30 min, 50 µM (CYP2D6) [%]	inhibition at 30 min, 50 µM (CYP2C19) [%]	inhibition at 30 min, 50 µM (CYP1A2) [%]	IC50 (CYP2C19; read-out: IC50 CYP2C19 blue, cDNA-expressed enzyme, Vivid blue substrate 10 µM) [µM]	Effect on CYP3A4 catalytic activity, Vivid red assay (CYP3A4 [2]; red substrate)
> 100	10.1	> 50	25.2	> 50	29.1	> 100	20.6	37.8	> 100	4.4		CC(C)=CCC[C@](C)(O[C@@H]1O[C@H](CO[C@@H]2O[C@H](CO)[C@@H](O)[C@H](O)[C@H]2O)[C@@H](O)[C@H](O)[C@H]1O)[C@H]1CC[C@]2(C)[C@@H]1[C@H](O)C[C@@H]1[C@@]3(C)CC[C@H](O[C@@H]4O[C@H](CO)[C@@H](O)[C@H](O)[C@H]4O[C@@H]4O[C@H](CO)[C@@H](O)[C@H](O)[C@H]4O)C(C)(C)[C@@H]3CC[C@]12C [Rb1]								
10.3		6.7		> 50	34.9	19.2		> 100	58.6		17.1	CC(C)=CCC[C@@](C)(O)[C@H]1CC[C@]2(C)[C@@H]1[C@H](O)C[C@@H]1[C@@]3(C)CC[C@H](O)C(C)(C)[C@@H]3CC[C@]12C [20(R)-PPD]								
> 100	8.1	> 50	21.7	> 50	17.7	> 100	11.7	> 100	> 100	16.9	30.2	CC(C)=CCC[C@](C)(O[C@@H]1O[C@H](CO)[C@@H](O)[C@H](O)[C@H]1O)[C@H]1CC[C@]2(C)[C@@H]1[C@H](O)C[C@@H]1[C@@]3(C)CC[C@H](O)C(C)(C)[C@@H]3[C@@H](O[C@@H]3O[C@H](CO)[C@@H](O)[C@H](O)[C@H]3O)C[C@]12C [Rg1]								
30.5		9.1		> 50	49.4	45.9		23.8	9.1			CC(C)=CCC[C@](C)(O[C@@H]1O[C@H](CO)[C@@H](O)[C@H](O)[C@H]1O)[C@H]1CC[C@]2(C)[C@@H]1[C@H](O)C[C@@H]1[C@@]3(C)CC[C@H](O)C(C)(C)[C@@H]3CC[C@]12C [C-K, ginsenoside Compound K]								
86.4		18.5		9.3		47		32.4	25.2			CC(C)=CCC[C@](C)(O)[C@H]1CC[C@]2(C)[C@@H]1[C@H](O)C[C@@H]1[C@@]3(C)CC[C@H](O[C@@H]4O[C@H](CO)[C@@H](O)[C@H](O)[C@H]4O[C@@H]4O[C@H](CO)[C@@H](O)[C@H](O)[C@H]4O)C(C)(C)[C@@H]3CC[C@]12C [Rg3]								
> 100	4.3	> 50	38	> 50	44.2	> 100	8.8	> 100	66.1		28.1	CC(C)=CCC[C@](C)(O[C@@H]1O[C@H](CO)[C@@H](O)[C@H](O)[C@H]1O)[C@H]1CC[C@]2(C)[C@@H]1[C@H](O)C[C@@H]1[C@@]3(C)CC[C@H](O)C(C)(C)[C@@H]3[C@@H](O[C@@H]3O[C@H](CO)[C@@H](O)[C@H](O)[C@H]3O[C@@H]3O[C@@H](C)[C@H](O)[C@@H](O)[C@H]3O)C[C@]12C [Re]								
												Clc1ccc(COC(Cn2ccnc2)c2ccc(Cl)cc2Cl)c(Cl)c1 (stereo not shown) [miconazole nitrate salt, reference compound]							0.25	
99.7		> 50	17.6	> 50	49.4	> 100	5	> 100	68.8		31.3	CC(C)=CCC[C@](C)(O[C@@H]1O[C@H](CO[C@@H]2OC[C@@H](O)[C@H](O)[C@H]2O)[C@@H](O)[C@H](O)[C@H]1O)[C@H]1CC[C@]2(C)[C@@H]1[C@H](O)C[C@@H]1[C@@]3(C)CC[C@H](O[C@@H]4O[C@H](CO)[C@@H](O)[C@H](O)[C@H]4O[C@@H]4O[C@H](CO)[C@@H](O)[C@H](O)[C@H]4O)C(C)(C)[C@@H]3CC[C@]12C [Rb3]								

SMILES	IC50 (CYP3A4 [1]) [µM]	inhibition at 30 min, 50 µM (CYP3A4 [1]; [3]) [%]	IC50 (CYP2C9; [4]) [µM]	inhibition at 30 min, 50 µM (CYP2C9; [5]) [%]	IC50 (CYP2D6) [µM]	inhibition at 30 min, 50 µM (CYP2D6; [6]) [%]	IC50 (CYP2C19) [µM]	inhibition at 30 min, 50 µM (CYP2C19; [7]) [%]	IC50 (CYP1A2) [µM]	IC50 (CYP3A4 [2]) [µM]	inhibition at 30 min, 50 µM (CYP3A4 [2]) [%]	inhibition at 30 min, 50 µM (CYP1A2; [8]) [%]	inhibition at 30 min, 50 µM (CYP3A4 [1]) [%]	IC50 (CYP2C9) [µM]	inhibition at 30 min, 50 µM (CYP2C9) [%]	inhibition at 30 min, 50 µM (CYP2D6) [%]	inhibition at 30 min, 50 µM (CYP2C19) [%]	inhibition at 30 min, 50 µM (CYP1A2) [%]	IC50 (CYP2C19; read-out: IC50 CYP2C19 blue, cDNA-expressed enzyme, Vivid blue substrate 10 µM) [µM]	Effect on CYP3A4 catalytic activity, Vivid red assay (CYP3A4 [2]; red substrate)
CC(C)=CCC[C@](C)(O)[C@H]1CC[C@]2(C)[C@@H]1[C@H](O)C[C@@H]1[C@@]3(C)CC[C@H](O)C(C)(C)[C@@H]3[C@@H](O[C@@H]3O[C@H](CO)[C@@H](O)[C@H](O)[C@H]3O[C@@H]3O[C@@H](C)[C@H](O)[C@@H](O)[C@H]3O)C[C@]12C [Rg2]	> 100				> 50		> 100		> 100	47			19.4	> 50	20.1	37.2	14.8	29.2		
CC(C)(O)CCC[C@@](C)(O)[C@H]1CC[C@]2(C)[C@@H]1[C@H](O)C[C@@H]1[C@@]3(C)CC[C@H](O)C(C)(C)[C@@H]3[C@@H](O)C[C@]12C [20(R)-25-OH-PPT]	27.2		8.5		> 50	10	43.9		> 100			16.9								activated the catalytic activity of CYP3A4
CC(C)=CCC[C@](C)(O)[C@H]1CC[C@]2(C)[C@@H]1[C@H](O)C[C@@H]1[C@@]3(C)CC[C@H](O)C(C)(C)[C@@H]3[C@@H](O)C[C@]12C [PPT, protopanaxatriol]	7.4		31.6		> 50	18.9	46.9		> 100	> 100	39.4	13.1								
